# Laboratory results from patent US20230107642A1 (Erasca, Inc., priority 2020, published 2023).
# Biological target: T1, Cys12 of the KRAS 4B G12C protein (Homo sapiens, UniProt P01116, G12C)
# T1 construct: This protein contained 188 amino acids in total, including an N-terminal 6-Histidine tag; made in house; host or cells: E. coli BL21
# Assay: In vitro covalent adduct formation (CAF) assay, LC-MS intact mass
# Assay type: binding
# Conditions: 10 uM compound, 60 min
# Summary of the method: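 GDP-loaded (>95%) His-TEV-tagged KRAS 4B G12C (residues 1–169), 5 μM in TBS pH 7.4, incubated with 10 μM compound (4% DMSO) at 22° C for one hour. Intact-protein LC-MS gave free:adduct ratios, reported as percent protein modified; duplicate runs.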
row,% CAF 10 uM @ 60 min [%],SMILES
1,94.1,"C=CC(=O)N1[C@H](C)CN(c2nc(=O)n3c4c(c(-c5cc(Cl)c(F)cc5F)c(C(F)(F)F)cc24)SC[C@@H](N2CCCC2)C3)C[C@@H]1C [Example 1422, (3S)-8-((3S,5R)-4-acryloyl-3,5-dimethylpiperazin-1-yl)-11-(5-chloro-2,4-difluorophenyl)-3-(pyrrolidin-1-yl)-10-(trifluoromethyl)-3,4-dihydro-2H,6H-[1,4]thiazepino[2,3,4-ij]quinazolin-6-one]"
2,71.4,"C=CC(=O)N1[C@H](C)CN(c2nc(=O)n3c4c(c(-c5cc(Cl)c(F)cc5F)c(C(F)(F)F)cc24)SCC2(COC2)C3)C[C@@H]1C (atropisomer, axis not shown) [Example 1361b]"
3,95,"C=CC(=O)N1[C@H](C)CN(c2nc(=O)n3c4c(c(-c5cc(Br)c(F)cc5F)c(C(F)(F)F)cc24)SC[C@@H]3COC)C[C@@H]1C (atropisomer, axis not shown) [Example 1448, (3S,10S)-7-((3S,5R)-4-Acryloyl-3,5-dimethylpiperazin-1-yl)-10-(5-bromo-2,4-difluorophenyl)-3-(methoxymethyl)-9-(trifluoromethyl)-2,3-dihydro-5H-[1,4]thiazino[2,3,4-ij]quinazolin-5-one]"
4,92.5,"[2H]C([2H])([2H])OC[C@H]1CSc2c(-c3cc(Cl)c(F)cc3F)c(C(F)(F)F)cc3c(N4C[C@@H](C)N(C(=O)C=C)[C@@H](C)C4)nc(=O)n1c23 [Example 1417, (3S)-7-((3S,5R)-4-acryloyl-3,5-dimethylpiperazin-1-yl)-10-(5-chloro-2,4-difluorophenyl)-3-((methoxy-d3)methyl)-9-(trifluoromethyl)-2,3-dihydro-5H-[1,4]thiazino[2,3,4-ij]quinazolin-5-one]"
5,44.1,"C=CC(=O)N1CCN(c2nc(=O)n3c4c(c(-c5cc(Cl)c(F)cc5F)c(C(F)(F)F)cc24)SC[C@@H]3CN2C[C@@H]3C[C@H]2CO3)CC1 (atropisomer, axis not shown) [Example 1342, (3S,10S)-3-(((1S,4S)-2-oxa-5-azabicyclo[2.2.1]heptan-5-yl)methyl)-7-(4-acryloylpiperazin-1-yl)-10-(5-chloro-2,4-difluorophenyl)-9-(trifluoromethyl)-2,3-dihydro-5H-[1,4]thiazino[2,3,4-ij]quinazolin-5-one]"
6,87,C=CC(=O)N1C[C@H](C)N(c2nc(=O)n3c4c(c(-c5cc(Cl)c(F)cc5F)c(C(F)(F)F)cc24)SC[C@@H]3CN2C[C@@H]3C[C@H]2CO3)C[C@H]1C [Example 1304]

# The next lines start with the compound.
row,SMILES,% CAF 10 uM @ 60 min [%]
1,"C=CC(=O)N1C[C@H](C)N(c2nc(=O)n3c4c(c(-c5ccc(F)cc5F)c(C(F)(F)F)cc24)SC[C@@H]3COCOC)C[C@H]1C (atropisomer, axis not shown) [Example 1327, (3S,10R)-7-((2S,5R)-4-acryloyl-3,5-dimethylpiperazin-1-yl)-10-(2,4-difluorophenyl)-3-((methoxymethoxy)methyl)-9-(trifluoromethyl)-2,3-dihydro-5H-[1,4]thiazino[2,3,4-ij]quinazolin-5-one]",86.3
2,"C=CC(=O)N1CCN(c2nc(=O)n3c4c(c(-c5ccc(F)cc5)c(C(F)(F)F)cc24)SC[C@@H]3CN2CCN(CC)CC2)CC1 [Example 1378, (S)-7-(4-acryloylpiperazin-1-yl)-3-((4-ethylpiperazin-1-yl)methyl)-10-(4-fluorophenyl)-9-(trifluoromethyl)-2,3-dihydro-5H-[1,4]thiazino[2,3,4-ij]quinazolin-5-one]",78.9

# Same assay, conditions: 10 uM compound, 60 min incubation
row,% CAF 10 uM @ 60 min [%],SMILES
1,97,"C=CC(=O)N1CCN(c2nc(=O)n3c4c(c(-c5cc(Cl)c(F)cc5F)c(C(F)(F)F)cc24)SC[C@@H]3COC)CC1 (atropisomer, axis not shown) [Example 1107, (3S,10R)-7-(4-acryloylpiperazin-1-yl)-10-(5-chloro-2,4-difluorophenyl)-3-(methoxymethyl)-9-(trifluoromethyl)-2,3-dihydro-5H-[1,4]thiazino[2,3,4-ij]quinazolin-5-one]"

# Same assay, conditions: 10 μM compound, after 1 hour
row,SMILES,CAF (% after 1 hour) [%]
1,"C=CC(=O)N1[C@H](C)CN(c2nc(=O)n3c4c(c(-c5ccc(F)cc5)c(C(F)(F)F)cc24)SC[C@@H](OCC(N)=O)C3)C[C@@H]1C [Example 1233, 2-(((S)-8-((3S,5R)-4-acryloyl-3,5-dimethylpiperazin-1-yl)-11-(4-fluorophenyl)-6-oxo-10-(trifluoromethyl)-3,4-dihydro-2H,6H-[1,4]thiazepino[2,3,4-ij]quinazolin-3-yl)oxy)acetamide]",95
2,"O=C1CC2CN(c3nc(=O)n4c5c(c(-c6ccc(F)cc6F)c(C(F)(F)F)cc35)SCCC4)CC(C1)N2C(=O)/C=C/CF [Example 1200, (E)-11-(2,4-difluorophenyl)-8-(9-(4-fluorobut-2-enoyl)-7-oxo-3,9-diazabicyclo[3.3.1]nonan-3-yl)-10-(trifluoromethyl)-3,4-dihydro-2H,6H-[1,4]thiazepino[2,3,4-ij]quinazolin-6-one]",73

# Same assay, conditions: after 60 min
row,CAF (% binding after 60 min) [%],SMILES
1,95,"C=CC(=O)N1[C@H](C)CN(c2nc(=O)n3c4c(c(-c5ccc(F)cc5F)c(C(F)(F)F)cc24)SC[C@@H](OCOC)C3)C[C@@H]1C [Example 1012, (3S)-8-((3S,5R)-4-acryloyl-3,5-dimethylpiperazin-1-yl)-11-(2,4-difluorophenyl)-3-(methoxymethoxy)-10-(trifluoromethyl)-3,4-dihydro-2H,6H-[1,4]thiazepino[2,3,4-ij]quinazolin-6-one]"
2,97,"C=CC(=O)N1[C@H](C)CN(c2nc(=O)n3c4c(c(-c5ccc(F)cc5F)c(C(F)(F)F)cc24)SC[C@@H](OCCN(C)C)C3)C[C@@H]1C [Example 1034, (3S)-8-((3S,5R)-4-acryloyl-3,5-dimethylpiperazin-1-yl)-11-(2,4-difluorophenyl)-3-(2-(dimethylamino)ethoxy)-10-(trifluoromethyl)-3,4-dihydro-2H,6H-[1,4]thiazepino[2,3,4-ij]quinazolin-6-one]"

# Further lines, the compound ahead of its results:
row,SMILES,CAF (% binding after 60 min) [%]
1,"C=CC(=O)N1[C@H](C)CN(c2nc(=O)n3c4c(c(-c5ccc(F)cc5)c(C(F)(F)F)cc24)SC[C@@H](OCCOC)C3)C[C@@H]1C [Example 1025, (S)-8-((3S,5R)-4-acryloyl-3,5-dimethylpiperazin-1-yl)-11-(4-fluorophenyl)-3-(2-methoxyethoxy)-10-(trifluoromethyl)-3,4-dihydro-2H,6H-[1,4]thiazepino[2,3,4-ij]quinazolin-6-one]",96
2,"C=CC(=O)N1CCN(c2nc(=O)n3c4c(c(-c5ccc(F)c(Cl)c5)c(C(F)(F)F)cc24)SC[C@H](OC)C3)CC1 [Example 1043, (R)-8-(4-acryloylpiperazin-1-yl)-11-(3-chloro-4-fluorophenyl)-3-methoxy-10-(trifluoromethyl)-3,4-dihydro-2H,6H-[1,4]thiazepino[2,3,4-ij]quinazolin-6-one]",97
3,"C=CC(=O)N1[C@H](C)CN(c2nc(=O)n3c4c(c(-c5ccc(F)cc5)c(C(F)(F)F)cc24)SC[C@@H](OCOC)C3)C[C@@H]1C [Example 1010, (S)-8-((3S,5R)-4-acryloyl-3,5-dimethylpiperazin-1-yl)-11-(4-fluorophenyl)-3-(methoxymethoxy)-10-(trifluoromethyl)-3,4-dihydro-2H,6H-[1,4]thiazepino[2,3,4-ij]quinazolin-6-one]",96
